According to US9834535B2, “Sulfamate derivative compounds for use in treating or alleviating pain” (Bio-Pharm Solutions Co., Ltd., priority 2013, dated 2017):

Experiments:
[1] = system: Post operation-induced pain model; test: Antiallodynic activity on post operative-induced pain model (von Frey); assay type: in vivo, Sprague-Dawley rats; details: ip; rat, intraperitoneal, von Frey, 0.5 h
Protocol: Male Sprague-Dawley rats′(Orient Bio, Korea), 300˜320 g, total of 201 rats were used (details in Table 7). Rats were habituated at least 3 clays before surgery and free access to food and water (room temperature and humidity were maintained at 24±2° C. and 50±10%, respectively). The process of performing the post-operation model's surgery was adapted from Brennan et al (1996). At first, rats with allodynia (threshold valueless than 8 g) were excluded in Pre-von Frey Test. During the post-operation surgery, rats were anesthetized under gaseous anesthesia with 2% isoflurane. Rats were laid face down on a plate fixed at 37° C. to prevent against hypothermia. The ipsilateral plantar aspect (left side) of the hind paw was prepared in a sterile manner with a 10% povidone-iodine solution. […]
For efficacy measure, the threshold value of group C was assigned 100% efficacy, and the percentage of the threshold values of group A compared to group C (for each different dose level) were calculated as the efficacies. Base on these efficacy values, ED50 was calculated using log fitting. […]
For pain threshold test, all animals were placed in a stainless steel meshed chamber and habituated for 30 min in the test box. The tactile sensitivity of the ipsilateral hind paw was measured using the up-and-down method (Dixon, 1980) with seven von Frey monofilaments (0.4, 1, 2, 4, 6, 8, and 15 g) using 3 trials. […]

[2] = system: Vincristine-induced pain model; test: Antiallodynic activity on vincristine-induced pain model (von Frey); assay type: in vivo, Sprague-Dawley rats; details: ip, rat, intraperitoneal, 0.5 h
Protocol: Male, Sprague-Dawley rats (300-320 g, Nara Bio, Korea) were habituated for 1 week before surgery and allowed free access to food and water throughout the experimentation. Room temperature and humidity were maintained at 24±2° C. and 50±10%, respectively.
Vincristine was established by the procedure of Natsuko et al. (2001) with minor modifications. Vincristine was intravenously infused continuously for 14 clays using a mini-osmotic pump as follows. Vincristine sulfate solution (Hospira, Australia) was diluted with 0.9% saline to 30 ug/kg, final close. The pumps (Alzet Model 2002, USA) were filled with the vincristine solution and primed by incubation at 37° C. for 4 h before the infusion. […]
Tactile sensitivity (Mechanical allodynia) was evaluated using von Frey monofilaments before and after treatment, and animals were used withdrawal threshold value was less than 4 g. […] The tactile sensitivity for ipsilateral hind paw was measured using the up-and-down method (Dixon, 1980) with seven von Frey monofilaments (0.4, 1, 2, 4, 6, 8, and 15 g) to 3 trials. […] The 50% paw withdrawal threshold for each paw was calculated using the following formula: [Xth] log=[vFr] log+ky where [vFr] is the force of the last von Frey used, k=0.2249 which is the average interval (in log units) between the von Frey monofilaments, and y is a value that depends upon the pattern of withdrawal responses (Dixon, 1980). […]

CC1(C)O[C@@H](COS(N)(=O)=O)[C@H](c2ccccc2Cl)O1 [Example 2, ((4S,5S)-5-(2-chlorophenyl)-2,2-dimethyl-1,3-dioxolan-4-yl)methyl sulfamate]
ED50 [1]: 1.8 mg/kg
ED50 [2]: 1 mg/kg
